Measured values published in patent publication US10758534B2 (Vertex Pharmaceuticals Incorporated, priority 2014, dated 2020).

Biological target: T1, F508del (Homo sapiens, UniProt P13569, DEL508-508)
T1 construct: expressed in transfected cells
Experiment: Protocol 1: membrane potential optical assay (FLIPR III, voltage sensing dye), identification of potentiator compounds
Assay type: cell-based
Conditions: Table 3, compounds of Table 1
How it was run: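 Read-out: change in voltage-sensing dye fluorescence (FLIPR III) as a measure of F508del conductance. Temperature-corrected (27° C, 24 hrs) NIH 3T3 cells expressing F508del are pretreated with potentiators, dye-loaded, then stimulated with forskolin under a chloride ion gradient using chloride-free gluconate bath.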

T1 sequence (P13569 with tags, fused parts or gaps DEL508-508): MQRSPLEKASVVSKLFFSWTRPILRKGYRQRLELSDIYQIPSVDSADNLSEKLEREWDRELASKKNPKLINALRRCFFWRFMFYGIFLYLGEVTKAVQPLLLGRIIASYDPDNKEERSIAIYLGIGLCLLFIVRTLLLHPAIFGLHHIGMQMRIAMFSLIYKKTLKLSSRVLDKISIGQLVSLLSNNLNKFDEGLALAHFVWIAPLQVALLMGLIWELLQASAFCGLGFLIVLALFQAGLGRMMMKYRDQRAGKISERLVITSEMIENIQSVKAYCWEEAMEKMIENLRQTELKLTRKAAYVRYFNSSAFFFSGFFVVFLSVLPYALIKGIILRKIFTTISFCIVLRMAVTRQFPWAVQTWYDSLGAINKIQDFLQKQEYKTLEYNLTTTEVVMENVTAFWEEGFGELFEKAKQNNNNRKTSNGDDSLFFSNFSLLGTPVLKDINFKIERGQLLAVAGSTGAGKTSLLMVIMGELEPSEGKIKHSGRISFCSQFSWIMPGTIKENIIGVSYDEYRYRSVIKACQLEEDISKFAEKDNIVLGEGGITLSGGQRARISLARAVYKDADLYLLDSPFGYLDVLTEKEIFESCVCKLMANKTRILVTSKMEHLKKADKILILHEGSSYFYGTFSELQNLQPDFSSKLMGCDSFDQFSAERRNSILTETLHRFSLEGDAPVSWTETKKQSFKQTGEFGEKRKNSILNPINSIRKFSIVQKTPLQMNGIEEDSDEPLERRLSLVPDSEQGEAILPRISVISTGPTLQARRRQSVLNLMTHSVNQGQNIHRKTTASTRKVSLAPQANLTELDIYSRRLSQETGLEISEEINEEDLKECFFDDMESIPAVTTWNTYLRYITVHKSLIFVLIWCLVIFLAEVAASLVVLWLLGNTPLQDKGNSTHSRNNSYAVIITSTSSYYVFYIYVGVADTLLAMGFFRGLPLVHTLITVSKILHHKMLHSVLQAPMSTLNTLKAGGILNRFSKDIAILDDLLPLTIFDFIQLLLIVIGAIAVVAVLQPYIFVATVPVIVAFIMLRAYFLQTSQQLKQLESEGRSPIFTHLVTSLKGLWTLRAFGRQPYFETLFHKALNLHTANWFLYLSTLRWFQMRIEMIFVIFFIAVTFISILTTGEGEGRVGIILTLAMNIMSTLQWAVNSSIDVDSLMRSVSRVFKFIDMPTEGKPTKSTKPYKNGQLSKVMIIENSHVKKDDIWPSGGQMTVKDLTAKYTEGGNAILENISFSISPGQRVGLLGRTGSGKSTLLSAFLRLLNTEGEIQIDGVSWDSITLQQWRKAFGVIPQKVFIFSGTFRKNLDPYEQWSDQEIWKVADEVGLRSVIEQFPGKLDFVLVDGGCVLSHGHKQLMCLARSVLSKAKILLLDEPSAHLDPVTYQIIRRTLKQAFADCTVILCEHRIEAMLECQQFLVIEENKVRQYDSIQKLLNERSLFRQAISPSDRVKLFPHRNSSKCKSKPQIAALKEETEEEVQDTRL

SMILES | EC30
COc1cc(-c2ccc(C(=O)NS(=O)(=O)c3cccc(N)n3)c(Oc3c(C)cc(C)cc3C)n2)ccc1C#N [Compound 923, N-[(6-amino-2-pyridyl)sulfonyl]-6-(4-cyano-3-methoxy-phenyl)-2-(2,4,6-trimethylphenoxy)pyridine-3-carboxamide] | +++ (“+++” means <3 uM)
CC(C)COc1cc(F)cc(-c2ccc(C(=O)NS(=O)(=O)c3cccc(N)n3)c(N3C[C@H]4CC[C@@H]3C4)n2)c1 [Compound 924, N-[(6-amino-2-pyridyl)sulfonyl]-2-[(1S,4R)-3-azabicyclo[2.2.1]heptan-3-yl]-6-(3-fluoro-5-isobutoxy-phenyl)pyridine-3-carboxamide] | +++ (“+++” means <3 uM)
CC(C)Oc1ccc(-c2ccc(C(=O)NS(=O)(=O)c3cccc(N)n3)c(N3C(C)CC(C)C3C)n2)cn1 (centres unmarked) [Compound 925, N-[(6-amino-2-pyridyl)sulfonyl]-6-(6-isopropoxy-3-pyridyl)-2-(2,3,5-trimethylpyrrolidin-1-yl)pyridine-3-carboxamide] | +++ (“+++” means <3 uM)
CC(C)COc1cc(F)cc(-c2ccc(C(=O)NS(=O)(=O)c3cccc(N)n3)c(N3CCCC34CCCC4)n2)c1 [Compound 926, N-[(6-amino-2-pyridyl)sulfonyl]-2-(9-azaspiro[4.4]nonan-9-yl)-6-(3-fluoro-5-isobutoxy-phenyl)pyridine-3-carboxamide] | +++ (“+++” means <3 uM)
Cn1ccc2c(Cn3nc(C(C)(C)C)cc3C(=O)NS(=O)(=O)c3cccc(N)c3)cccc21 [Compound 927, N-(3-aminophenyl)sulfonyl-5-tert-butyl-2-[(1-methylindol-4-yl)methyl]pyrazole-3-carboxamide] | ++ (“++” means between 3 uM and 10 uM)
CC(C)Oc1ccc(-c2ccc(C(=O)NS(=O)(=O)c3cccc(N)n3)c(N3CCCC3C3CC3)n2)cn1 (centres unmarked) [Compound 928, N-[(6-amino-2-pyridyl)sulfonyl]-2-(2-cyclopropylpyrrolidin-1-yl)-6-(6-isopropoxy-3-pyridyl)pyridine-3-carboxamide] | +++ (“+++” means <3 uM)
CCOCCc1ccc(C(=O)NS(=O)(=O)c2cccc(N)n2)c(Oc2c(C)cc(C)cc2C)n1 [Compound 929, N-[(6-amino-2-pyridyl)sulfonyl]-6-(2-ethoxyethyl)-2-(2,4,6-trimethylphenoxy)pyridine-3-carboxamide] | ++ (“++” means between 3 uM and 10 uM)
COc1ncc(-c2ccc(C(=O)NS(=O)(=O)c3ccc[nH]c3=O)c(Oc3c(C)cc(C)cc3C)n2)cc1C [Compound 930, 6-(6-methoxy-5-methyl-3-pyridyl)-N-[(2-oxo-1H-pyridin-3-yl)sulfonyl]-2-(2,4,6-trimethylphenoxy)pyridine-3-carboxamide] | ++ (“++” means between 3 uM and 10 uM)
CCC1CCN(c2nc(-c3cc(F)cc(OCC(C)C)c3)ccc2C(=O)NS(=O)(=O)c2cccc(N)n2)C1 (centres unmarked) [Compound 931, N-[(6-amino-2-pyridyl)sulfonyl]-2-(3-ethylpyrrolidin-1-yl)-6-(3-fluoro-5-isobutoxy-phenyl)pyridine-3-carboxamide] | +++ (“+++” means <3 uM)
CCOc1ccc(-c2ccc(C(=O)NS(=O)(=O)c3ccc[nH]c3=O)c(Oc3c(C)cc(C)cc3C)n2)cn1 [Compound 932, 6-(6-ethoxy-3-pyridyl)-N-[(2-oxo-1H-pyridin-3-yl)sulfonyl]-2-(2,4,6-trimethylphenoxy)pyridine-3-carboxamide] | + (“+” means greater than 10 uM)
CC(C)COc1cc(F)cc(-c2ccc(C(=O)NS(=O)(=O)c3cccc(N)n3)c(OCC3CCOCC3)n2)c1 [Compound 933, N-[(6-amino-2-pyridyl)sulfonyl]-6-(3-fluoro-5-isobutoxy-phenyl)-2-(tetrahydropyran-4-ylmethoxy)pyridine-3-carboxamide] | +++ (“+++” means <3 uM)
CC(C)COc1cc(F)cc(-c2ccc(C(=O)NS(=O)(=O)c3cccc(N)n3)c(N3[C@@H]4CCC[C@H]3CC4)n2)c1 [Compound 934, N-[(6-amino-2-pyridyl)sulfonyl]-2-[(1R,5S)-8-azabicyclo[3.2.1]octan-8-yl]-6-(3-fluoro-5-isobutoxy-phenyl)pyridine-3-carboxamide] | +++ (“+++” means <3 uM)
CC(C)Oc1ccc(-c2ccc(C(=O)NS(=O)(=O)c3cccc(N)n3)c(NC3CCc4ccccc43)n2)cn1 (centres unmarked) [Compound 935, N-[(6-amino-2-pyridyl)sulfonyl]-2-(indan-1-ylamino)-6-(6-isopropoxy-3-pyridyl)pyridine-3-carboxamide] | ++ (“++” means between 3 uM and 10 uM)
Cc1cc(C)c(Oc2nc(-c3ccc4ccn(C)c4c3)ccc2C(=O)NS(=O)(=O)c2ccc[nH]c2=O)c(C)c1 [Compound 936, 6-(1-methylindol-6-yl)-N-[(2-oxo-1H-pyridin-3-yl)sulfonyl]-2-(2,4,6-trimethylphenoxy)pyridine-3-carboxamide] | ++ (“++” means between 3 uM and 10 uM)
Cc1cc(C)c(Oc2nc(C3=CCCCO3)ccc2C(=O)NS(=O)(=O)c2cccc(N)n2)c(C)c1 [Compound 937, N-[(6-amino-2-pyridyl)sulfonyl]-6-(3,4-dihydro-2H-pyran-6-yl)-2-(2,4,6-trimethylphenoxy)pyridine-3-carboxamide] | +++ (“+++” means <3 uM)
Cc1cc(C)c(Oc2nc(-c3cc(C)nn3C)ccc2C(=O)NS(=O)(=O)c2cccc(N)n2)c(C)c1 [Compound 938, N-[(6-amino-2-pyridyl)sulfonyl]-6-(2,5-dimethylpyrazol-3-yl)-2-(2,4,6-trimethylphenoxy)pyridine-3-carboxamide] | ++ (“++” means between 3 uM and 10 uM)
COc1ncccc1S(=O)(=O)NC(=O)c1ccc(-c2ccccc2)nc1Oc1c(C)cc(C)cc1C [Compound 939, N-[(2-methoxy-3-pyridyl)sulfonyl]-6-phenyl-2-(2,4,6-trimethylphenoxy)pyridine-3-carboxamide] | +++ (“+++” means <3 uM)
CC(C)Oc1ccc(-c2ccc(C(=O)NS(=O)(=O)c3cccc(N)n3)c(N3CCCCCC3)n2)cn1 [Compound 940, N-[(6-amino-2-pyridyl)sulfonyl]-2-(azepan-1-yl)-6-(6-isopropoxy-3-pyridyl)pyridine-3-carboxamide] | +++ (“+++” means <3 uM)
CC(C)COc1cc(-c2ccc(C(=O)NS(=O)(=O)c3ccc[nH]c3=O)c(N3CCC(C)CC3)n2)ccc1Cl [Compound 941, 6-(4-chloro-3-isobutoxy-phenyl)-2-(4-methyl-1-piperidyl)-N-[(2-oxo-1H-pyridin-3-yl)sulfonyl]pyridine-3-carboxamide] | +++ (“+++” means <3 uM)
CC(C)COc1cc(F)cc(-c2ccc(C(=O)NS(=O)(=O)c3ccn[nH]3)c(N3C[C@H](C)C[C@@H](C)C3)n2)c1 [Compound 942, 2-[(3R,5R)-3,5-dimethyl-1-piperidyl]-6-(3-fluoro-5-isobutoxy-phenyl)-N-(1H-pyrazol-5-ylsulfonyl)pyridine-3-carboxamide] | +++ (“+++” means <3 uM)
COc1nccc2c1cc(C(=O)NS(=O)(=O)c1cccc(N)c1)n2Cc1c(C)cc(C)cc1C [Compound 943, N-(3-aminophenyl)sulfonyl-4-methoxy-1-[(2,4,6-trimethylphenyl)methyl]pyrrolo[3,2-c]pyridine-2-carboxamide] | + (“+” means greater than 10 uM)
CC(C)COc1cc(F)cc(-c2ccc(C(=O)NS(=O)(=O)c3ccn[nH]3)c(N3CCC4(CCC4)CC3)n2)c1 [Compound 944, 2-(7-azaspiro[3.5]nonan-7-yl)-6-(3-fluoro-5-isobutoxy-phenyl)-N-(1H-pyrazol-5-ylsulfonyl)pyridine-3-carboxamide] | +++ (“+++” means <3 uM)
CCc1ccccc1-c1cnc(Oc2c(C)cc(C)cc2C)c(C(=O)NS(=O)(=O)c2cccc(N)n2)c1 [Compound 945, N-[(6-amino-2-pyridyl)sulfonyl]-5-(2-ethylphenyl)-2-(2,4,6-trimethylphenoxy)pyridine-3-carboxamide] | +++ (“+++” means <3 uM)
C[C@@H]1CN(c2ncccc2C(=O)NS(=O)(=O)c2cccc(N)n2)C(C)(C)C1 [Compound 946, N-[(6-amino-2-pyridyl)sulfonyl]-2-[(4S)-2,2,4-trimethylpyrrolidin-1-yl]pyridine-3-carboxamide] | ++ (“++” means between 3 uM and 10 uM)
Cc1cc(C)c(Oc2nc(C(C)(C)C)ccc2C(=O)NS(=O)(=O)c2cccc(NCCN(C)C)n2)c(C)c1 [Compound 947, 6-tert-butyl-N-[[6-(2-dimethylaminoethylamino)-2-pyridyl]sulfonyl]-2-(2,4,6-trimethylphenoxy)pyridine-3-carboxamide] | +++ (“+++” means <3 uM)
COc1cccc(S(=O)(=O)NC(=O)C2Cc3ccccc3CCN2Cc2c(C)cc(C)cc2C)n1 (centres unmarked) [Compound 948, N-[(6-methoxy-2-pyridyl)sulfonyl]-3-[(2,4,6-trimethylphenyl)methyl]-1,2,4,5-tetrahydro-3-benzazepine-4-carboxamide] | +++ (“+++” means <3 uM)
CC(C)Oc1ccc(-c2ccc(C(=O)NS(=O)(=O)c3cccc(N)n3)c(N3C[C@H](C)CC3(C)C)n2)cn1 [Compound 949, N-[(6-amino-2-pyridyl)sulfonyl]-6-(6-isopropoxy-3-pyridyl)-2-[(4R)-2,2,4-trimethylpyrrolidin-1-yl]pyridine-3-carboxamide] | +++ (“+++” means <3 uM)
COc1ccc(-c2ccc(C(=O)NS(=O)(=O)c3cccc(N)n3)c(Oc3c(C)cc(C)cc3C)n2)c(OC)c1 [Compound 950, N-[(6-amino-2-pyridyl)sulfonyl]-6-(2,4-dimethoxyphenyl)-2-(2,4,6-trimethylphenoxy)pyridine-3-carboxamide] | +++ (“+++” means <3 uM)
CC1CN(c2nc(-c3cccc(NC(C)C)n3)ccc2C(=O)NS(=O)(=O)c2cccc(N)n2)C(C)(C)C1 (centres unmarked) [Compound 951, N-[(6-amino-2-pyridyl)sulfonyl]-6-[6-(isopropylamino)-2-pyridyl]-2-(2,2,4-trimethylpyrrolidin-1-yl)pyridine-3-carboxamide] | +++ (“+++” means <3 uM)
